Experimental data as given in ChEMBL document CHEMBL3286343, “Fused Thiazin-3-ones as KCa3.1 Inhibitors” (ACS Med Chem Lett, 2014).

Molecular target: Intermediate conductance calcium-activated potassium channel protein 4 (Homo sapiens, UniProt O15554)
Test: Inhibition of human KCa3.1 overexpressed in HEK293 cells assessed as thallium influx preincubated for 15 mins followed by thallium/ionomycin addition measured for 50 secs by FLIPR assay
Type: cell-based

Chain of Intermediate conductance calcium-activated potassium channel protein 4 (O15554 whole entry): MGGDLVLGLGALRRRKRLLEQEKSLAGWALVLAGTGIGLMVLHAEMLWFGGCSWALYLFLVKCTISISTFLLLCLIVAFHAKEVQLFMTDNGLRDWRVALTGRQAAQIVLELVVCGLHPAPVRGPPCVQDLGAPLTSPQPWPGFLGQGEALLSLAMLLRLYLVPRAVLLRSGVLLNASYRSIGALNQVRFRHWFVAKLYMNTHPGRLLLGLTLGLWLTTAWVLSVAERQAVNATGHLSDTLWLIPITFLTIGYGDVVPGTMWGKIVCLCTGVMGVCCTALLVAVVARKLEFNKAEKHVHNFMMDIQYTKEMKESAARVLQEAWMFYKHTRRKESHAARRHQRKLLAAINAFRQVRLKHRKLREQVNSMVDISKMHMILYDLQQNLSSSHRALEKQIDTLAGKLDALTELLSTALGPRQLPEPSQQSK

CC(c1ccc(F)c(OC(F)(F)F)c1)N1C(=O)CS(=O)(=O)c2ccsc21 (configuration not stated)
IC50: 39 nM

CC(c1ccc(F)c(OC(F)(F)F)c1)N1C(=O)CSc2ncsc21 (configuration not stated)
IC50: 60 nM
